# Substitutions are numbered along the chain they refer to. Numbered stars: 1 amine (or outer) side, 2 acyl side, 3 side chain; on linkers, the order of the positions; unused ones are H or OH. Bridge positions count the residues as written; N and C are the ends. * marks the point of attachment. C20 diacid = O=C(O)CCCCCCCCCCCCCCCCCCC(=O)*; γGlu = O=C(O)[C@H](CCC(=O)[*:2])N[*:1]; CH2 = C([*:1])[*:2]
# T1: human NPRA (human, UniProt P16066 33-1061)
# T1 sequence (looked up): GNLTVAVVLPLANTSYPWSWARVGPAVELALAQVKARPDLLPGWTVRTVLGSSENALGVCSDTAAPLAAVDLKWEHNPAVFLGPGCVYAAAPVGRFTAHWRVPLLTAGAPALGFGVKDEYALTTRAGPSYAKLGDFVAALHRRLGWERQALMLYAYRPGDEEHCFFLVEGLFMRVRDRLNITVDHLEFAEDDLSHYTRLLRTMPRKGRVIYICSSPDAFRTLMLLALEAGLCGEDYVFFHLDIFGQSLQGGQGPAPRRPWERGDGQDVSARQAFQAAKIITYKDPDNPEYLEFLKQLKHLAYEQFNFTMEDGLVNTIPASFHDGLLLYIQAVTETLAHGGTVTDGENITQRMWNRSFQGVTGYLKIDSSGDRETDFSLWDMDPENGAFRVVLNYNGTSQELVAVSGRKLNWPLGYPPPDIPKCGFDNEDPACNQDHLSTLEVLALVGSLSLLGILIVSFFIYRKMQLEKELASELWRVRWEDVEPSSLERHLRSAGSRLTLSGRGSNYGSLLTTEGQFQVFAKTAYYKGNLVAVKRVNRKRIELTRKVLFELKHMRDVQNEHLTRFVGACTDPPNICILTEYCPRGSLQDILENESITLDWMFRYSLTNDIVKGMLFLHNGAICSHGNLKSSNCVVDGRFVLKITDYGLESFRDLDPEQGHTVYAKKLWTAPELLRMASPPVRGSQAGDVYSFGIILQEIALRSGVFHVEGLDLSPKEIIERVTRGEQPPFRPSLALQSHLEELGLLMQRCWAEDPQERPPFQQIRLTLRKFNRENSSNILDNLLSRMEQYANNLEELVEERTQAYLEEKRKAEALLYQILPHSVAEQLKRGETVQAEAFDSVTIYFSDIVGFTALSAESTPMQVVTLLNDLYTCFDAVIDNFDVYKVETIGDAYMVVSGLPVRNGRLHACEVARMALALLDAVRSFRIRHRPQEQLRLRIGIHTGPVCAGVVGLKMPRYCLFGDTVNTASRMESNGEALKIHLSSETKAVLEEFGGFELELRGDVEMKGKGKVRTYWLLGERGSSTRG
# B1: Example 77 (peptide)
# peptide: EKXRSSCFGGRIDRIGHYSGLGCPSFRHGGKSSGAPPPS
# modifications: HOOC-(CH2)18-CO-(γGlu)-EKEKEKG-PEG12-EK-βAla-RSS[CFGGRIDRIGHYSGLGC]PSFRHGGKSSGAPPPS-NH2; thioacetal linkage between the bracketed Cys
# B2: Example 78 (peptide)
# peptide: B1 peptide
# modifications: HOOC-(CH2)18-CO-(γGlu)-EKEKEKG-PEG24-EK-βAla-RSS[CFGGRIDRIGHYSGLGC]PSFRHGGKSSGAPPPS-NH2; thioacetal linkage between the bracketed Cys
# B3: Example 45 (peptide)
# peptide: XEKEKEKGEKGRSSCFGGKIDRIGHYSGLGCPSFRHGGPSSGAPPPS
# modifications: HOOC-(CH2)18-CO-(γGlu)-EKEKEKGEKGRSS[CFGGKIDRIGHYSGLGC]PSFRHGGPSSGAPPPS-NH2; disulfide linkage between the bracketed Cys
# B4: Example 85 (peptide)
# peptide: B3 peptide with G11X, G18K, K19R, Y26Q, P39K
# modifications: HOOC-(CH2)18-CO-(γGlu)-EKEKEKGEK-βAla-RSS[CFGKRIDRIGHQSGLGC]PSFRHGGKSSGAPPPS-NH2; thioacetal linkage between the bracketed Cys
# Assays:
# [1] = test system: plasma cGMP; test: In vivo monkey studies, plasma cGMP ELISA; parameters: species or system male cynomolgus monkeys; conditions: for Net cGMP (nM) Change from Baseline 0.083 h: 0.083 h postdose; for Net cGMP (nM) Change from Baseline 0.083 h / Net cGMP (nM) Change from Baseline 0.25 h / Net cGMP (nM) Change from Baseline 0.5 h / Net cGMP (nM) Change from Baseline 1 h / Net cGMP (nM) Change from Baseline 2 h / Net cGMP (nM) Change from Baseline 4 h / Net cGMP (nM) Change from Baseline 8 h / Net cGMP (nM) Change from Baseline 12 h / Net cGMP (nM) Change from Baseline 24 h / Net cGMP (nM) Change from Baseline 36 h / Net cGMP (nM) Change from Baseline 48 h / Net cGMP (nM) Change from Baseline 72 h / Net cGMP (nM) Change from Baseline 96 h / Net cGMP (nM) Change from Baseline 120 h / Net cGMP (nM) Change from Baseline 144 h / Net cGMP (nM) Change from Baseline 168 h: monkey plasma; for Net cGMP (nM) Change from Baseline 0.25 h: 0.25 h postdose; for Net cGMP (nM) Change from Baseline 0.5 h: 0.5 h postdose; for Net cGMP (nM) Change from Baseline 1 h: 1 h postdose; for Net cGMP (nM) Change from Baseline 2 h: 2 h postdose; for Net cGMP (nM) Change from Baseline 4 h: 4 h postdose; for Net cGMP (nM) Change from Baseline 8 h: 8 h postdose; for Net cGMP (nM) Change from Baseline 12 h: 12 h postdose; for Net cGMP (nM) Change from Baseline 24 h: 24 h postdose; for Net cGMP (nM) Change from Baseline 36 h: 36 h postdose; for Net cGMP (nM) Change from Baseline 48 h: 48 h postdose; for Net cGMP (nM) Change from Baseline 72 h: 72 h postdose; for Net cGMP (nM) Change from Baseline 96 h: 96 h postdose; for Net cGMP (nM) Change from Baseline 120 h: 120 h postdose; for Net cGMP (nM) Change from Baseline 144 h: 144 h postdose; for Net cGMP (nM) Change from Baseline 168 h: 168 h postdose; for net cGMP levels (result in words): monkeys, single SC dose, plasma
# Protocol: In vivo monkey studies were conducted as described in detail below. Young adult-to-adult male cynomolgus monkeys were given a single dose subcutaneously (SC). Blood was collected predose and at various pre-determined timepoints throughout the study period. Aliquot of cynomolgus monkey plasma was received for cyclic cGMP (cGMP) measurement and stored at −80° C. prior to use.
# Control plasma was made for determining the recovery rate of spike-in cGMP using Enzo cGMP complete ELISA kit (Enzo Life Sciences, Inc, Farmingdale, NY, cat no. ADI-901-164). Briefly, blood from male Sprague Dawley rats (Inotiv, Indianapolis, IN), about 7 months old, was collected in a BD Vacutainer EDTA tube (Becton Dickinson, Franklin Lakes, NJ, cat no. BD-367856) with volume of approximate 4 mL through retro orbital bleeding. Plasma was prepared by spinning the tube in an Eppendorf Refrigerated Centrifuge 5810R (Brinkman Instruments, Inc, Westbury, NY) at 3500 rpm (3000×g) for 10 min at 4° C. Plasma was collected as Positive Control plasma. Cyclic GMP (cGMP standard from Enzo cGMP complete ELISA kit) was added to the positive control plasma at a final concentration of additional 40 nM. Positive Control and Spiked-in Control plasma were aliquoted and stored at −80° C.
# The cGMP content was measured using the Enzo cGMP complete ELISA kit following the manufacturer's directions with modifications as described below. The cGMP standards provided in the kit were diluted 1:3 ranging from 50 nM to 0.023 nM in 1× assay buffer that was diluted in water from 2× assay buffer provided in the kit. The cGMP standards ([…]) were transferred to a 96-well polypropylene plate (Thermo Scientific, cat no. 442587).
# Plasma samples were thawed from −80° C. and diluted 1:20 in 1× assay buffer in the above plate with a final volume of 150 μL. Assay buffer was added (150 μL) for both a non-specific binding control (in the absence of cGMP antibody) and a maximum binding control (in the absence of competing cGMP) in duplicate wells. Positive Control and Spiked-in Control plasma were diluted 1:20 in 1× assay buffer with a final volume of 150 μL in duplicate wells of the above plate. All diluted plasma was mixed by pipetting up and down several times.
# Acetylation reagent mix was prepared by adding 1-part of acetic anhydride into 2-parts of triethylamine provided in the kit and mixing well using Vortex (Scientific Industries, Inc, Bohemia, NY). All controls, standards, and plasma samples were acetylated by adding 15 μL of acetylation reagent mix into the plate, one column at a time, and shaking for 1 min on a Titer Plate Shaker (Lab-Line Instrument, Inc., Melrose Park, IL) at room temperature. The plate was shaken for an additional 1 min following the acetylation of the last column to ensure the reaction was completed.
# Acetylated controls, standard and plasma samples were transferred (100 μL) to an ELISA plate (n=1). Then 50 μL of cGMP conjugate were added to each well followed by the addition of 50 μL cGMP antibody to each well except for two non-specific binding wells, in which 50 μL of 1× assay buffer were added. The plate was then sealed and shaken for 2 h at room temperature on the plate shaker. Following this incubation, the plate was washed five times using 200 μL of 1× wash buffer diluted in water from 5× wash buffer provided in the kit. Then, 200 μL of para-Nitrophenylphosphate (pNpp) were added to each well. The plate was sealed with a new plate sealer and shaken in dark for 1 h at room temperature on the plate shaker. Finally, 50 μL of stop solution were added to each well to stop the enzyme reaction. The plate was then read at 405 nm using SpectraMax Plus (Molecular Devices, San Jose, CA).
# The mean absorbance at 405 nm (O.D. 405 nm) for the non-specific binding controls was subtracted from the O.D. 405 nm of all samples. The subtracted O.D. 405 nm of all samples were then normalized with the mean subtracted O.D. 405 nm of the maximum binding controls as B/B0%. […]
# [2] = target: T1, human NPRA; test: cell-based or functional assay
molecule,measurement,setting,value
"(BFAEN2-βAla)-EKEKEKG-PEG24-EK-βAla-RSS[CFGKRIDRIGHQSGLGC]PSFRHGSPSSGAPPPS-NH2 (EKXRSSCFGKRIDRIGHQSGLGCPSFRHGSPSSGAPPPS; BFAEN2-βAla, PEG24, C-terminal amide; MOD_RES 1 N-terminal modified with (BFAEN2-beta-Ala)-EKEKEKG-PEG24-; wherein BFAEN2 is Bifurcated Fatty Acid Enantiomer 2; SITE 3 X at position 3 is beta-Alanine; MOD_RES 39 Amidation; DISULFID 7..23 Intrachain thioacetal bond) [Example 144]",Net cGMP (nM) Change from Baseline 0.083 h,[1]; dose 100 nmol/kg,5.9 nM
same,Net cGMP (nM) Change from Baseline 0.25 h,[1]; dose 100 nmol/kg,18.26 nM
same,Net cGMP (nM) Change from Baseline 0.5 h,[1]; dose 100 nmol/kg,27.08 nM
same,Net cGMP (nM) Change from Baseline 1 h,[1]; dose 100 nmol/kg,36.51 nM
same,Net cGMP (nM) Change from Baseline 2 h,[1]; dose 100 nmol/kg,35.21 nM
same,Net cGMP (nM) Change from Baseline 4 h,[1]; dose 100 nmol/kg,27.1 nM
same,Net cGMP (nM) Change from Baseline 8 h,[1]; dose 100 nmol/kg,20.15 nM
same,Net cGMP (nM) Change from Baseline 12 h,[1]; dose 100 nmol/kg,13.2 nM
same,Net cGMP (nM) Change from Baseline 24 h,[1]; dose 100 nmol/kg,10.23 nM
same,Net cGMP (nM) Change from Baseline 36 h,[1]; dose 100 nmol/kg,9.57 nM
same,Net cGMP (nM) Change from Baseline 48 h,[1]; dose 100 nmol/kg,7.11 nM
same,Net cGMP (nM) Change from Baseline 72 h,[1]; dose 100 nmol/kg,5.22 nM
same,Net cGMP (nM) Change from Baseline 96 h,[1]; dose 100 nmol/kg,6.83 nM
same,Net cGMP (nM) Change from Baseline 120 h,[1]; dose 100 nmol/kg,3.5 nM
same,Net cGMP (nM) Change from Baseline 144 h,[1]; dose 100 nmol/kg,4.48 nM
same,Net cGMP (nM) Change from Baseline 168 h,[1]; dose 100 nmol/kg,8.71 nM
same,net cGMP levels (result in words),[1],increased net cGMP levels
{C20 diacid-γGlu}-EKEKEKGEKPRSSCFGKRIDRIGHQSGLGCPSFRHGSPSSGAPPPS-NH2 (linker 14-30 via CH2) [Example 127],Net cGMP (nM) Change from Baseline 0.083 h,[1]; dose 50 nmol/kg,-0.87 nM
same,Net cGMP (nM) Change from Baseline 0.25 h,[1]; dose 50 nmol/kg,4.09 nM
same,Net cGMP (nM) Change from Baseline 0.5 h,[1]; dose 50 nmol/kg,8.84 nM
same,Net cGMP (nM) Change from Baseline 1 h,[1]; dose 50 nmol/kg,8.13 nM
same,Net cGMP (nM) Change from Baseline 2 h,[1]; dose 50 nmol/kg,8.92 nM
same,Net cGMP (nM) Change from Baseline 4 h,[1]; dose 50 nmol/kg,10.25 nM
same,Net cGMP (nM) Change from Baseline 8 h,[1]; dose 50 nmol/kg,13.28 nM
same,Net cGMP (nM) Change from Baseline 12 h,[1]; dose 50 nmol/kg,18.76 nM
same,Net cGMP (nM) Change from Baseline 24 h,[1]; dose 50 nmol/kg,20.16 nM
same,Net cGMP (nM) Change from Baseline 36 h,[1]; dose 50 nmol/kg,19.43 nM
same,Net cGMP (nM) Change from Baseline 48 h,[1]; dose 50 nmol/kg,18.43 nM
same,Net cGMP (nM) Change from Baseline 72 h,[1]; dose 50 nmol/kg,12.9 nM
same,Net cGMP (nM) Change from Baseline 96 h,[1]; dose 50 nmol/kg,11.67 nM
same,Net cGMP (nM) Change from Baseline 120 h,[1]; dose 50 nmol/kg,9.32 nM
same,Net cGMP (nM) Change from Baseline 144 h,[1]; dose 50 nmol/kg,9.3 nM
same,Net cGMP (nM) Change from Baseline 168 h,[1]; dose 50 nmol/kg,9.36 nM
same,net cGMP levels (result in words),[1],increased net cGMP levels
B1,"cGMP Assay (EC50, pM) w/Casein",[2],1270 pM
B2,"cGMP Assay (EC50, pM) w/BSA",[2],19700 pM
B3,"cGMP Assay (EC50, pM) w/BSA",[2],25200 pM
B4,"cGMP Assay (EC50, pM) w/Casein",[2],361 pM
